# Patent publication US20230263787A1, “ENHANCED MITOCHONDRIAL RESPONSE WITH THIOZOLIDINEDIONE, PIOGLITAZONE OR ROSIGLITAZONE” (priority 2020, published 2023)
# Assays:
# DRG-OPC co-cultures = test: Axon damage after lysolecithin demyelination in microfluidic chambers, drug applied to neuronal cell body chamber; format: cell-based, mouse; details: 15 µM SR-18292 added together with pioglitazone to cell body chamber
# Experimental: Before adding lysolecithin to microfluidic chambers, the inventors used an Axio Observer Z1 inverted motorized microscope (Zeiss, Germany), for live imaging to identify the myelinated axonal segments (video 11, online resource). Images of the myelinated axonal segments were saved with x-y coordinates of the stage position. The effect of live imaging on the axons and myelin was determined by imaging microfluidic chamber containing both mKate2 expressing DRGs and eGFP-expressing OPC where imaged at 20x magnification (Plan-Apochromat 0.8 NA Ph 2 M27 objective, Zeiss, Germany) for 30 minutes before returning the microfluidic chambers to the incubator.
# The inventors then added lysolecithin for 2 hours before live imaging the previously imaged axonal segments again, using the x-y co-ordinate of the stage position. These live images of axons, pre and post lysolecithin, allowed the assessment of the demyelination of the axonal segments (based on M1-M4-eGFP fluorescence) as well as axonal damage following acute demyelination (based on appearance of mKate2 fluorescence). […] Meanwhile, axons were classed as fragmented when the mKate2 fluorescence was disrupted and not continuous in at least one part of the axon. […] Following exposure to lysolecithin, demyelination was confirmed based on disruption or loss of M1-M4-eGFP fluorescence. […]
# DRG neurons [1] = details: 17 hours
# Experimental: Complex IV histochemistry was performed as described below and images were obtained using bright field microscopy. The intensity of the complex IV reactive product was assessed using FIJI and densitometry to analyse complex IV activity at a single cell level.
# DRG neurons [2] = test: Seahorse analysis of mitochondrial respiration in DRG neurons; details: sodium azide 100 µM for 16 hours
# Experimental: DRG neuronal cells were cultured on V7 Seahorse 24-well cell culture microplates (Agilent Technologies), in maintenance medium in a 5% CO2 37° C. incubator. […] Plates were incubated for 30 mins at 37° C. (without CO2), before entry into the Seahorse XFe24 Extracellular Flux Analyser (Agilent). Three measurements were taken basally, and three measurements taken after injection of each drug to either inhibit ATP-linked respiration, uncouple respiration or inhibit the respiratory chain. Mitochondrial respiration was calculated by subtracting the first OCR measurement following injection of antimycin/rotenone from the third basal OCR measurement. Normalisation of OCR to relative protein content was achieved following Sulforhodamine B (SRB) staining of all cell wells. Data for each treatment groups was averaged from between 4-5 replicate wells.
# [3] = test system: cerebellar slices from Shiverer mice; test: Mitochondrial dynamics in dysmyelinated Purkinje cell axons of Shiverer cerebellar slices exposed to lysolecithin; format: cell-based, mouse; details: chronically dysmyelinated axons
# Experimental: Cerebellar slices were prepared as previously described. Briefly, wild type C57BL/6 and Shiverer mice pups were sacrificed at P10 and cerebellum was placed in ice-cold dissection medium. The sagittal slices were then sectioned into 300 µm thick slices and placed on a membrane insert. Picospritzer III (Parker, US) and a micromanipulator was used to inject mEOS2-Lentivirus (titre 7-8*10^9; aliquots stored at -80° C.) containing 0.025% of Fast-Green (FG, Sigma F7258, UK) in to the Purkinje cell body layer. […]
# Live imaging of mitochondria in Purkinje cell axon was performed at DIV14, directly after removing the lysolecithin. […] Newly transported mitochondria, either appearing from the neuronal cell body to the most proximal 20 micron axonal segment or distal axonal mitochondria appearing in the 20 microns long axonal segment of the most distal photoconverted segment, were counted visually and confirmed using the kymograph. […] For each mitochondrion appearing, the direction of movement was noted, as well as the area of the mitochondrion was measured manually, using the measure function in Fiji, when it first appeared in the axon.
# Kymographs of the time lapse images were generated by using the ImageJ plugin KymographClear2.0 [40]. Mitochondrial speed of movement was determined by using the Kymotoolbox ImageJ plugin [80]. […]
# DRG axons = test: Lysolecithin exposure of unmyelinated DRG cultures (axon damage); format: cell-based, mouse; details: 0.005 mg/ml lysolecithin for 2 hours
molecule,measurement,setting,value
"Cc1ccc(CN(CC(O)COc2cccc3[nH]ccc23)C(C)(C)C)cc1 (stereo not drawn) [PGC1α inhibitor, SR-18292]",effect on the protective effect of pioglitazone on demyelinated axons,DRG-OPC co-cultures,significantly diminished
[N-]=[N+]=[N-] [sodium azide],highest dose which did not impact cell viability and resulted in complex IV inhibition,DRG neurons [1],100 µM
same,cell viability,DRG neurons [2],without compromising cell viability
L-α-Lysophosphatidylcholine [lysolecithin],axonal mitochondrial dynamics of newly transported mitochondria,[3],does not significantly impact
same,damage to DRG axons in unmyelinated cultures,DRG axons,without damaging the DRG axons
